The text below walks through data of the OligoGym collection.

The series has as its target HSD17B13. To be noted: ASO, HepaRG.

After the bases stand the sugars from the 5' end (letter, count) and the backbone: PS all phosphorothioate, else s phosphorothioate and o phosphodiester by linkage. Methylation of C is not given here. e = 2'-O-(2-methoxyethyl) (MOE); k = constrained ethyl (cEt); d = 2'-deoxy (DNA); m = 2'-O-methyl

Consider ATGGTGATCAGAAGCA (sugars k3 d10 k3, PS), for which the target mRNA inhibition is, setting by setting: (0.02 µM) 0%; (0.078 µM) 28%; (0.313 µM) 46%; (1 µM) 85%; (1.25 µM) 80%; (5 µM) 81%. Consider TTTATTGGTATGGTAA (sugars k3 d10 k3, PS), for which, where the note is “1 µM”, the target mRNA inhibition was determined as 25%. On the same count and under the same terms, to “AAATAGAGTCGGTCAC (sugars k3 d9 k3 e1, PS)” belongs 48%. The same measure, in the same setting: next, TTAAACCTTCCCTGTG (sugars k3 d10 k3, PS): 22%; “AGTACAGTTCCTTTTC (sugars k3 d1 m1 d8 k3, PS)”: 56%; AGTAAATGATGGCAGG (sugars k3 d10 k3, PS): 40%.

Take GTCAGTAGAGAGCATA (sugars k3 d10 k3, PS): the target mRNA inhibition stood at 0% (0.02 µM); 0% (0.078 µM); 27% (0.313 µM); 85% (1 µM); 78% (1.25 µM); 74% (5 µM). Turning to TGGCTACAGATTGGAA (sugars k3 d10 k3, PS), for the setting “1 µM”, the target mRNA inhibition turned out to be 55%. On the same count and under the same terms, next, TACGATGGAACAAAAA (sugars k3 d10 k3, PS): 20%. On to CCATCTAGAATTAAGG (sugars k3 d10 k3, PS), for which the target mRNA inhibition (1 µM) worked out at 0%.

GCCTAAAATTGTCTAA (sugars k3 d10 k3, PS): the target mRNA inhibition (1 µM) stood at 32%. Regarding TTTGTTAGAGTGCTTA (sugars k3 d10 k3, PS), the target mRNA inhibition amounted to 12% (0.02 µM); 30% (0.078 µM); 56% (0.313 µM); 80% (1 µM); 86% (1.25 µM); 89% (5 µM).

In the case of “AAGTUAGCCCCCAGGA (sugars k3 d1 m1 d8 k3, PS)”, the target mRNA inhibition (1 µM) amounted to 0%. On the same count and under the same terms, to CTCAGGCTGTAAGAGT (sugars k3 d10 k3, PS) belongs 21%; to “TCTAAACATCTCTGGG (sugars k3 d9 k3 e1, PS)”, 42%.

ACCAAGTAGCTTACAT (sugars k3 d10 k3, PS) came in with a target mRNA inhibition (1 µM) of 2%. Still for that read-out and setting: to TTCGAATCATTAAGCT (sugars k3 d10 k3, PS) belongs 63%; to CGAAACTATTCATATC (sugars k3 d10 k3, PS), 66%.

As to TGAACCGTATTCCCAA (sugars k3 d10 k3, PS), the target mRNA inhibition (0.02 µM) turned out to be 26%; the target mRNA inhibition (0.078 µM) was found to be 8%; the target mRNA inhibition (0.313 µM) turned out to be 59%; the target mRNA inhibition (1 µM) turned out to be 76%; the target mRNA inhibition (1.25 µM) was found to be 81%; the target mRNA inhibition (5 µM) is 93%. For the sequence TCCCACAAAACTAACC (sugars k3 d10 k3, PS), where the note is “1 µM”, the target mRNA inhibition amounted to 24%.

For the setting “1 µM”, ATTCTGTGTTCTTGTT (sugars k3 d10 k3, PS) registered a target mRNA inhibition of 67%. Turning to TCTTATGTAATAGCCA (sugars k3 d10 k3, PS), the target mRNA inhibition reads like this: (0.02 µM) 0%; (0.078 µM) 2%; (0.313 µM) 35%; (1 µM) 77%; (1.25 µM) 74%; (5 µM) 91%. CAAGGAGTACTTCACA (sugars k3 d10 k3, PS) registered a target mRNA inhibition (1 µM) of 66%. The same measure, in the same setting: next, CATACCACTCTTCTCA (sugars k3 d10 k3, PS): 24%; GACAATGGTTGATAGT (sugars k3 d10 k3, PS): 67%.

CTTAATTTTCGGGTTC (sugars k3 d10 k3, PS) came in with a target mRNA inhibition (1 µM) of 37%. Sequence GATATGAGTAAAGATC (sugars k3 d10 k3, PS) registered a target mRNA inhibition (1 µM) of 23%. The same measure, in the same setting: next, TTGAATAGCAAGCCAA (sugars k3 d10 k3, PS): 31%. In turn, CTTCCAAGCATTCCAT (sugars k3 d10 k3, PS) came in with a target mRNA inhibition (1 µM) of 57%. Sequence TTATACTGAAGGCTGT (sugars k3 d10 k3, PS) returned a target mRNA inhibition (1 µM) of 23%.

For the sequence GTTATTCTCTTGACAA (sugars k3 d10 k3, PS), the target mRNA inhibition (1 µM) is 42%.

As to CATTCTGTGTTCTTGT (sugars k3 d10 k3, PS), the target mRNA inhibition (1 µM) was found to be 60%. On the same count and under the same terms, to TAGGCAGTAAAGTGCT (sugars k3 d10 k3, PS) belongs 48%; to ACCAAACTTCCAGCAG (sugars k3 d10 k3, PS), 31%; to TGTGCACTCATTCTGT (sugars k3 d10 k3, PS), 18%. Same read-out and setting: next, TTCTTGCAGAAATTCA (sugars k3 d10 k3, PS): 42%.

As for TTACATCACCCACTTC (sugars k3 d10 k3, PS), the target mRNA inhibition (1 µM) is 37%. Still for that read-out and setting: to TGTCCACCTTTAAATG (sugars k3 d10 k3, PS) belongs 29%; to GTCTGCCTGCCTATTC (sugars k3 d10 k3, PS), 53%. On to GAAAAGCCTGACTCAC (sugars k3 d10 k3, PS), for which the target mRNA inhibition (1 µM) is 48%. The same measure, in the same setting: to “ACCGTTTTGGGCTAAT (sugars k3 d9 k3 e1, PS)” belongs 73%; to GTATCATTTGGCTTAA (sugars k3 d10 k3, PS), 29%.

The sequence TATCTTAAGAGAAGGT (sugars k3 d10 k3, PS) had a target mRNA inhibition (1 µM) of 29%. With GAGTTATACAGAAGAC (sugars k3 d10 k3, PS), the target mRNA inhibition (1 µM) is 61%.

Take “CGGTCACCTTTCATAA (sugars k3 d9 k3 e1, PS)”: the target mRNA inhibition (1 µM) was determined as 67%.

For the setting “1 µM”, CTCCATAATAATAGCT (sugars k3 d10 k3, PS) yielded a target mRNA inhibition of 59%. On the same count and under the same terms, next, CCATCCCCTAAGTTAT (sugars k3 d10 k3, PS): 14%; “TTGACTGCTGCTAGTG (sugars kkdddddddddkekek, PS)”: 29%.

Regarding “GTTAGTATAGTTATCT (sugars k3 d9 k3 e1, PS)”, the target mRNA inhibition (1 µM) came to 71%.

Where the note is “1 µM”, “ATAACTACAAGAGGTT (sugars k3 d9 k3 e1, PS)” gave a target mRNA inhibition of 67%. Same read-out and setting: to TTCAGAGTTATACAGA (sugars k3 d10 k3, PS) belongs 66%; to AGTCGGTCACCTTTCA (sugars k3 d10 k3, PS), 66%.

In the case of CATATGGTGTACACTG (sugars k3 d10 k3, PS), the target mRNA inhibition (1 µM) came out at 15%. On the same count and under the same terms, next, GTATTTACTTTTAGGG (sugars k3 d10 k3, PS): 61%; “CTTTUTATAGACTGGG (sugars k3 d1 m1 d8 k3, PS)”: 34%. On the same count and under the same terms, next, TGATAATTTGGTGTCA (sugars k3 d10 k3, PS): 3%; CCAAATCAGGTAGTTT (sugars k3 d10 k3, PS): 13%. On the same count and under the same terms, to “CTGTGGCATGGCTACA (sugars k3 d9 k3 e1, PS)” belongs 58%; to “CACATATGTGAAGAGC (sugars kkdddddddddkekek, PS)”, 53%; to GCAGATTATTATGTGA (sugars k3 d10 k3, PS), 59%. ACAATTAACATTCGGC (sugars k3 d10 k3, PS) returned a target mRNA inhibition (0.02 µM) of 13%; a target mRNA inhibition (0.078 µM) of 15%; a target mRNA inhibition (0.313 µM) of 43%; a target mRNA inhibition (1 µM) of 77%; a target mRNA inhibition (1.25 µM) of 62%; a target mRNA inhibition (5 µM) of 79%. TGTACAGTAGGCAGTT (sugars k3 d10 k3, PS) came in with a target mRNA inhibition (1 µM) of 75%.

As for “ATCTATCAGACTTCTT (sugars k3 d9 k3 e1, PS)”, the target mRNA inhibition (1 µM) stood at 51%. Take ATGAGAACAATCTCCC (sugars k3 d10 k3, PS): the target mRNA inhibition is, setting by setting: (0.02 µM) 0%; (0.078 µM) 9%; (0.313 µM) 40%; (1 µM) 65%; (1.25 µM) 64%; (5 µM) 78%. The sequence TAACTACAAGAGGTTA (sugars k3 d10 k3, PS) returned a target mRNA inhibition (1 µM) of 22%. For TGTATTTCGCTACTGT (sugars k3 d10 k3, PS), the target mRNA inhibition came to 12% (0.02 µM); 18% (0.078 µM); 46% (0.313 µM); 76% (1 µM); 80% (1.25 µM); 90% (5 µM). “TAGAGTCGGTCACCTT (sugars k3 d9 k3 e1, PS)” showed a target mRNA inhibition (1 µM) of 59%. The same measure, in the same setting: next, TTTCGAATCATTAAGC (sugars k3 d10 k3, PS): 30%. In the case of AGCATAAGTTACCAGA (sugars k3 d10 k3, PS), the target mRNA inhibition (0.02 µM) is 14%; the target mRNA inhibition (0.078 µM) is 31%; the target mRNA inhibition (0.313 µM) came to 49%; the target mRNA inhibition (1 µM) is 87%; the target mRNA inhibition (1.25 µM) was found to be 73%; the target mRNA inhibition (5 µM) was 92%. The sequence AGTCTACCACATACGC (sugars k3 d10 k3, PS) displayed a target mRNA inhibition (1 µM) of 65%. Still for that read-out and setting: next, TGCCAAACCAATGTTT (sugars k3 d10 k3, PS): 32%. On the same count and under the same terms, to GCTTAATGTTCAGTTT (sugars k3 d10 k3, PS) belongs 50%. Same read-out and setting: next, TTTATTATGAGGATCT (sugars k3 d10 k3, PS): 43%; AAATTTCAGTACCCAG (sugars k3 d10 k3, PS): 46%; CTTACCAATATGGGAT (sugars k3 d10 k3, PS): 11%.

Under “1 µM”, ATAAAGCTTTGCAGCA (sugars k3 d10 k3, PS) registered a target mRNA inhibition of 54%.
